{"source": "patent US8084497B2", "about": "“C-(2-phenyl-cyclohexyl)-methylamine compounds for therapy of fibromyalgia” (Gruenenthal GmbH, priority 2003, dated 2011)", "key": {"human μ-opiate receptor": {"target": "T1, human μ-opiate receptor (Homo sapiens, UniProt P35372)", "T1 construct": "purchased Perkin Elmer, Zaventem, Belgium RB-HOM; host or cells: CHO-K1 cells (recombinant expression)", "T1 sequence (P35372 whole entry)": "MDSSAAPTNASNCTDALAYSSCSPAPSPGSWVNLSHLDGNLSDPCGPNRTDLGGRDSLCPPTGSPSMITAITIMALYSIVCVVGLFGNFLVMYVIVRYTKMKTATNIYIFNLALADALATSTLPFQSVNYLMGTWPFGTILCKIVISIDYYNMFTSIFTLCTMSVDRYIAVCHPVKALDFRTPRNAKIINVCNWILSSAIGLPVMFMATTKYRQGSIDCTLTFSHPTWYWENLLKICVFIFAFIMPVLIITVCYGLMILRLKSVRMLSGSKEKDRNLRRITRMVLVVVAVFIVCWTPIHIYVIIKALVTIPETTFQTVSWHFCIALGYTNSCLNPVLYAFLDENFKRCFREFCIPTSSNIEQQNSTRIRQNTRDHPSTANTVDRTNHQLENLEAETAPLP", "assay": "Affinity for the human μ-opiate receptor ([3H]-naloxone displacement, CHO-K1 membrane preparation, SPA)", "type": "binding", "protocol": "Investigation of the affinity for the human μ-opiate receptor The receptor affinity for the human μ-opiate receptor is determined in a homogeneous set-up in microtitre plates. For this, dilution series of the substances to be tested are incubated with a receptor membrane preparation (15-40 μg protein/250 μl incubation batch) of CHO-K1 cells which express the human μ-opiate receptor (RB-HOM receptor membrane preparation from Perkin Elmer, Zaventem, Belgium) in the presence of 1 nmol/l of the radioactive ligand [^3H]-naloxone (NET719, Perkin Elmer, Zaventem, Belgium) and 1 mg WGA-SPA-Beads (wheat germ agglutinin SPA beads from Amersham/Pharmacia, Freiburg, Germany) in a total volume of 250 μl for 90 minutes at room temperature. 50 mmol/l Tris-HCl supplemented with 0.05% sodium azide and with 0.06% bovine serum albumin is used as the incubation buffer. 25 μmol/l naloxone are additionally added for determination of the non-specific binding. After the end of the ninety-minute incubation time, the microtitre plates are centrifuged for 20 minutes at 1,000 g and the radioactivity is measured in a […] (Microbeta-Trilux, PerkinElmer Wallac, Freiburg, Germany). The percentage displacement of the radioactive ligand from its binding to the human μ-opiate receptor is determined at a concentration of the test substances of 1 μmol/l and stated as the percentage inhibition of the specific binding. Starting from the percentage displacement by various concentrations of the test substances, IC50 inhibitory concentrations which cause a 50 percent displacement of the radioactive ligand are calculated. By conversion by means of the Cheng-Prusoff relationship, Ki values for the test substances are obtained (Cheng and Prusoff 1973)."}, "rats": {"tested_on": "rats", "assay": "Elevated plus maze test on rats (onset of anxiolytic actions)", "type": "in vivo, rat", "protocol": "In the elevated plus maze test the actions of substances on the endogenous anxiety of rodents towards open and elevated places are determined.\nThe apparatus was placed approx. 1 m above the floor and comprised four arms arranged in a cross, two opposite arms being open and two closed. […] The duration of stay and the number of entries into the open arms were evaluated. The group size was 10-15 animals. The single administration of the test substances or of the control vehicle took place 30 min before testing.\nIt is reported in the literature that benzodiazepines induce an increased duration of stay and entries into the open compartment. […] The typical disadvantages of monoamine reuptake inhibitors in the therapy of anxiety patients, namely the delayed onset of action and the initially anxiogenic-like effects, can thus be followed in the elevated plus maze test on rats. The elevated plus maze test is therefore a suitable animal model for the investigation of new therapies which have the aim of accelerating the onset of action of monoamine reuptake inhibitors.\nStatistical evaluation: Anova plus post-hoc Dunnett's test (Significance level: p<0.05; *: significant versus vehicle; #: significant versus intrinsic effect of 16 mg/kg i.p. 3-(2-dimethylaminomethyl-cyclohexyl)-phenol)."}, "5-HT reuptake": {"target": "T2, 5-HT reuptake (Rattus norvegicus, UniProt P31652)", "T2 construct": "synaptosomes are freshly isolated from areas of the rat brain; from tissue; host or cells: P2 synaptosome fraction from the medulla+pons region of male rat brain", "T2 sequence (P31652 whole entry)": "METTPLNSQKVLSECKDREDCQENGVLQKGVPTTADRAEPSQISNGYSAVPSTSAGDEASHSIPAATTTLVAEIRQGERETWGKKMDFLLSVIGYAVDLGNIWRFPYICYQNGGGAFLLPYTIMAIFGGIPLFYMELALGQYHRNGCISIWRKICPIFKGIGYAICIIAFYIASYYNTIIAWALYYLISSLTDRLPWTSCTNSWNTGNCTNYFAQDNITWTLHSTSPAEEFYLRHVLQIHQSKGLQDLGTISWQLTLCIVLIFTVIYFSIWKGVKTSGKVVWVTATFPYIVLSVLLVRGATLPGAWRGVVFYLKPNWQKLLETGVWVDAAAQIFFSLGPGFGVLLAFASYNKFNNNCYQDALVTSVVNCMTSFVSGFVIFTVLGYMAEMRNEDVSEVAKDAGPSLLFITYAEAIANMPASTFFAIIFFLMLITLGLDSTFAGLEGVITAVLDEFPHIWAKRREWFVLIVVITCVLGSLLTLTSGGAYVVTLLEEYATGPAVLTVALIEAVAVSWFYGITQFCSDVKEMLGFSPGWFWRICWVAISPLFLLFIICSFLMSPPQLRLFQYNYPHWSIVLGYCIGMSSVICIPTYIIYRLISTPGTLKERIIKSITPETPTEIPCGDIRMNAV", "assay": "5-HT reuptake inhibition in rat brain synaptosomes (medulla+pons)", "type": "biochemical", "excerpt": "In order to be able to carry out these in vitro studies, synaptosomes are freshly isolated from areas of the rat brain. […] For the NA reuptake these vesicular particles are isolated from the hypothalamus, and for the 5-HT reuptake from the medulla+pons region of male rat brains.\nThe IC50 values were obtained with the aid of the computer program “Figure P” (version 6.0, Biosoft, Cambridge, England). […] The computer program “Ligand” (version 4, Biosoft, England) was used to display KD values."}, "[1]": {"conditions": "8 mg/kg i.p., single administration 30 min before testing"}, "[2]": {"conditions": "16 mg/kg i.p., single administration 30 min before testing"}, "[3]": {"conditions": "1 mg/kg i.p., single administration"}, "[4]": {"conditions": "2 mg/kg i.p., single administration"}}, "note": "Structures can show the parent of a compound that is named as a salt. Marks after values point to notes of the source that are not given here."}
{"smiles": "CN(C)CC1CCCCC1c1cccc(O)c1", "note": "(centres unmarked) [3-(2-Dimethylaminomethyl-cyclohexyl)-phenol]", "values": [{"measurement": "ratio between the μ-opioid component and the monoamine reuptake inhibition (in words)", "setting": "human μ-opiate receptor; versus 5-HT and NA reuptake inhibition", "value": "balanced ratio"}, {"measurement": "Open arms: Duration of stay", "setting": "rats; [1]", "value": 29.0, "unit": "s"}, {"measurement": "Open arms: Number of entries", "setting": "rats; [1]", "value": 3.2}, {"measurement": "Open arms: Duration of stay", "setting": "rats; [2]", "value": "118.2* sec"}, {"measurement": "Open arms: Number of entries", "setting": "rats; [2]", "value": 8.5}, {"measurement": "anxiogenic-like action (in words)", "setting": "rats; acute administration", "value": "In no case was an anxiogenic-like action induced"}, {"measurement": "anxiolytic action (in words)", "setting": "rats; single administration", "value": "significant anxiolytic actions"}, {"measurement": "duration of stay in the open arms (in words)", "setting": "rats; single administration", "value": "significant increase"}, {"measurement": "number of entries into the open arms (in words)", "setting": "rats; single administration", "value": "clear increase"}]}
{"smiles": "CNCC1CCCCC1c1cccc(O)c1", "note": "(centres unmarked) [3-(2-Methylaminomethyl-cyclohexyl)-phenol hydrochloride]", "values": [{"measurement": "Ki", "setting": "human μ-opiate receptor", "value": 870, "unit": "nM"}, {"measurement": "Ki", "setting": "5-HT reuptake", "value": 5670, "unit": "nM"}]}
{"smiles": "CN(C)CC1CCCCC1c1cccc(O)c1", "note": "(centres unmarked) [3-(2-Dimethylaminomethyl-cyclohexyl)-phenol, hydrochloride]", "values": [{"measurement": "Ki", "setting": "human μ-opiate receptor", "value": 140, "unit": "nM"}, {"measurement": "Ki", "setting": "5-HT reuptake", "value": 50, "unit": "nM"}]}
{"smiles": "COc1ccc(C(CN(C)C)C2(O)CCCCC2)cc1", "note": "(centres unmarked) [Venlafaxine]", "values": [{"measurement": "μ-Opioid receptor affinity (Ki values)", "setting": "human μ-opiate receptor; [3H]-naloxone, CHO-K1 membranes", "value": "inactive"}, {"measurement": "Open arms: Duration of stay", "setting": "rats; [2]", "value": 66.9, "unit": "s"}, {"measurement": "Open arms: Number of entries", "setting": "rats; [2]", "value": 4.6}, {"measurement": "anxiolytic action (in words)", "setting": "rats; single administration", "value": "no anxiolytic action"}]}
{"smiles": "C=CCN1CC[C@]23c4c5ccc(O)c4O[C@H]2C(=O)CC[C@@]3(O)[C@H]1C5", "note": "[Naloxone]", "values": [{"measurement": "Open arms: Duration of stay", "setting": "rats; [3]", "value": 28.6, "unit": "s"}, {"measurement": "Open arms: Number of entries", "setting": "rats; [3]", "value": 4.5}]}
{"smiles": "CN1C(=O)CN=C(c2ccccc2)c2cc(Cl)ccc21", "note": "[Diazepam]", "values": [{"measurement": "Open arms: Duration of stay", "setting": "rats; [4]", "value": "77.7* sec"}, {"measurement": "Open arms: Number of entries", "setting": "rats; [4]", "value": "8.1*"}, {"measurement": "duration of stay in the open arms (in words)", "setting": "rats; single administration", "value": "increase"}, {"measurement": "number of entries into the open arms (in words)", "setting": "rats; single administration", "value": "increase"}]}
